Data as given in US10550094B2, “Compounds having antioxidant activity against free radicals and anti-inflammatory activity, and corresponding pharmaceutical or cosmetic compositions for skin care” (GIULIANI S.P.A., priority 2015, dated 2020).

Assay: HORAC Hydroxyl radical antioxidant capacity assay
Source text: HORAC Assay: Hydroxyl Antioxidant Capacity In Vitro
The commercial kit “Oxiselect Hydroxyl Radical Antioxidant Capacity (HORAC) activity assay” (Cell Biolabs).
The HORAC assay esxpresses the compound antiradical capacity towards the hydroxyl radical OH′ and is based on the oxidation of a fluorescent probe by hydroxyl radicals through a hydrogen transfer process (HAT). Hydroxyl radicals are produced by a radical initiator hydroxyl and by Fenton's reagent, which quenches the fluorescent probe over time. The antioxidants present in the sample block the oxidation by the hydroxyl radical of the fluorescent probe until the antioxidant activity in the sample runs out. The remaining hydroxyl radicals destroy the fluorescence of the fluorescent probe. The antioxidant capacity of the sample is related to the fluorescence decay curve, which usually is represented as the area under the curve (AUC). The AUC is used to quantify the total antioxidant activity of the hydroxyl radical in a sample and is compared to the curve of an antioxidant standard.
The compounds of the invention were tested at the following concentrations: 13.5 μM; 27 μM, 13.5 mM; 27 mM.
For comparison purposes, also samples of the compound monofurfurylidene-2.4-sorbitol defined below by the acronym ARGB11, were in this case tested under the same two concentrations, as a reference compound according to EP0345362 mentioned above as the background art of substances with free radical inhibition activity.

OC[C@@H](O)[C@H]1OC(c2ccco2)O[C@@H](CO)[C@H]1O (stereo partly shown) [ARGB11, monofurfurylidene-2.4-sorbitol, reference compound]
HORAC (Hydroxyl Radical Antioxidant Capacity) (13.5 μM): 31.04 μMole GAE/L
HORAC (Hydroxyl Radical Antioxidant Capacity) (27 μM): 40.110 μMole GAE/L
HORAC (Hydroxyl Radical Antioxidant Capacity) (13.5 mM): 308.497 μMole GAE/L
HORAC (Hydroxyl Radical Antioxidant Capacity) (27 mM): 408.795 μMole GAE/L
